Patent US8691808B2, “Antiviral compounds and their methods of use” (Influmedix, Inc., priority 2011, dated 2014)
Counter-ions that a name gives are not always drawn.

molecular target: T1, A/M2 protein (IonGate S31) (Influenza A virus, UniProt P0DOF5); assay: Cell-free electrophysiology of M2 proton channels on solid supported membranes (SSM, IonGate SURFE2R); format: biochemical; settings: 25 μM compound, activation by pH jump 7.0 to 6.0, % inhibition=100×(1−I/Io), hydrochloride, 25 µM
T1 construct: expressed in transfected cells; host or cells: CHO cell membranes
T1 sequence (P0DOF5 whole entry): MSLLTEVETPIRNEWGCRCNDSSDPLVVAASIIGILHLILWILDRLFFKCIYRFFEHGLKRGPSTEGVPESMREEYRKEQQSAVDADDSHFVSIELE

SMILES	IonGate S31 (% Inhibition Range at 25 μM)
NC12CC3CC(CC(C(F)F)C(C3)C1)C2 (stereo not drawn) [Example 10, exo-4-(difluoromethyl)tricyclo[4.3.1.1^3,8]undecan-1-amine hydrochloride]	B (11-50% (B))
NC12CC3CC(CC(C(F)F)C(C3)C1)C2 (stereo not drawn) [Example 11, endo-4-(difluoromethyl)tricyclo[4.3.1.1^3,8]undecan-1-amine hydrochloride]	A (51-95% (A))

same assay, conditions: 25 μM compound, activation by pH jump 7.0 to 6.0, % inhibition=100×(1−I/Io), read-out: IonGate S31 (% Inhibition Range at 25 μM)

SMILES	inhibition at 25 µM [%]
NC12CC3CC(CC(C1)C(O)C3)C2 (stereo not drawn) [Example 1, exo-1-aminotricyclo[4.3.1.1^3,8]undecan-4-ol hydrochloride]	11 to 50
NC12CC3CC(CC(C1)C(F)C3)C2 (stereo not drawn) [Example 3, endo-4-fluorotricyclo[4.3.1.1^3,8]undecan-1-amine hydrochloride]	51 to 95
NC12CC3CC(CC(C1)C(I)C3)C2 (centres unmarked) [Example 5, 4-iodotricyclo[4.3.1.1^3,8]undecan-1-amine hydrochloride]	11 to 50
N#CC1CC2CC3CC1CC(N)(C2)C3 (stereo not drawn) [Example 8, exo-1-aminotricyclo[4.3.1.1^3,8]undecane-4-carbonitrile hydrochloride]	51 to 95
NC12CC3CC(=NO)C(CC(C3)C1)C2 (centres unmarked) [Example 12, 1-aminotricyclo[4.3.1.1^3,8]undecan-4-one oxime hydrochloride]	1 to 10
NC12CC3CC(C1)OC(=O)C(C3)C2 (centres unmarked) [Example 13, 1-amino-4-oxatricyclo[4.3.1.1^3,8]undecan-5-one hydrochloride]	1 to 10
NC12CC3CC(C1)NC(=O)C(C3)C2 (centres unmarked) [Example 14, 1-amino-4-azatricyclo[4.3.1.1^3,8]undecan-5-one hydrochloride]	1 to 10
NC12CC3CNC(CC(C3)C1)C2 (centres unmarked) [Example 15, 4-azatricyclo[4.3.1.1^3,8]undecan-1-amine dihydrochloride]	11 to 50
NC12CC3COC(CC(C3)C1)C2 (centres unmarked) [Example 16, 4-oxatricyclo[4.3.1.1^3,8]undecan-1-amine hydrochloride]	11 to 50
